The values below come from patent US7956065B2, “Pharmaceutical compounds” (Biovail Laboratories International (Barbados) S.R.L., priority 2008, dated 2011).

Entries after “also recorded” stand apart in the source; their conditions may differ. Where a name gives a salt, the structure may show the parent alone. Read-outs that look alike come from different tables or passages of the source.

For data set [1], the system named is sub-chronic PCP-induced deficits in working memory in female hooded-Lister rats. Description: Novel object recognition (NOR) task after sub-chronic PCP treatment. It counts as in vivo, rat. An excerpt: One of the symptoms of dementia is the progressive development of a cognitive deficit. Certain pre-clinical tests allow the observation of relatively subtle cognitive deficits in the rat. The cognitive deficits observed are seen in behaviours such as working memory deficits which may be measured by recognition tasks such as the novel object recognition (NOR) paradigm. A recognition memory task allows the comparison between presented stimuli and previously stored information. Ennaceur & Delacour, Behav. Brain Res. 31: 47-59 (1988) described the NOR test in rats which was based on the differential exploration of familiar and new objects. The NOR test is a non-rewarded, ethologically relevant paradigm based on the spontaneous exploratory behaviour of rats which measures working memory. Each session consists of two trials. In the first trial, the rats are exposed to two identical objects in an open field. During the second trial, rats are exposed to two dissimilar objects, one familiar object from the first trial and one new object. Object recognition in rats can be measured as the difference in time spent exploring the familiar and the new object. […] The duration of each trial is also important as a preference for the novel object only lasts during the first 1 or 2 minutes, after which time preference diminishes as both objects become familiar and are explored equally.
The abovementioned rodent model was used to assess the effects of the Isomer A on sub-chronic PCP-induced deficits in working memory using the novel object recognition (NOR) paradigm. The working hypothesis was that both acute and sub-chronic treatment with Isomer A will attenuate the selective working memory deficit induced by sub-chronic PCP as measured in the NOR test paradigm.
Rats are allowed to habituate to the empty test box and the behavioural test room environment for 1 hour on day 1. Prior to behavioural testing on day 2 rats are given a further 3 minutes habituation.
Following the 3 minute habituation period, the rats are given two 3 minute trials (T1 and T2) which are separated by a 1 minute inter-trial interval in the home cage during which the objects are changed.
In this trial, the animals are allowed to explore two identical objects (A1 and A2) for 3 minutes.
In this trial, the animals explore a familiar object (A) from T1 and a novel object (B) for 3 minutes. The familiar object presented during T2 is a duplicate of the object presented in T1 in order to avoid any olfactory trails.
The object exploration is defined by animals licking, sniffing or touching the object with the forepaws whilst sniffing, but not leaning against, turning around, standing or sitting on the object. The exploration time (s) of each object (A1, A2, A and B) in each trial are recorded using two stopwatches and the following factors are calculated: • Total exploration time of both objects in the acquisition trial(s). • Total exploration time of both objects in the retention trial(s). • Habituation of exploratory activity. The LMA includes the exploration time, as measured by the number of lines crossed, for both the trials. • Discrimination index, which is calculated as shown below; (time spent exploring novel object−time spent exploring familiar object)÷total time spent in exploring the objects
Behaviour in all trials was recorded on video for subsequent blind scoring.
50 female hooded-Lister rats (Harlan, UK) were used as subjects for these studies. Rats were housed in groups of 5 under standard laboratory conditions under a 12 hr light:dark cycle, lights on at 0700 hr. All testing was carried out in the light phase. Food and water were freely provided. All experiments were conducted in accordance with the Animals Scientific Procedures Act, U.K. 1986 and were approved by the University of Bradford ethical review panel.
Rats were randomly assigned to two treatment groups and treated with vehicle, n=10 (distilled water, ip) or PCP, n=40 (2 mg/kg, ip) twice daily for 7 days. […]

In data set [2] the test system is PCP-induced cognitive deficit in the retention phase of the NOR task in female rats. The settings on record: cited from earlier work; for cognitive deficit in the retention phase of the NOR task: female rats.

As to `COc1cc2c(cc1OC)[C@@H]1C[C@@H](O)[C@H](CC(C)C)CN1CC2` (single isomer, unassigned) [Isomer A], in data set [1] (Isomer A 30 mg/kg p.o.), the “sedation (observation of the behaviour of the rats)” value is listed as “did not appear sedated”. Also, the “improvement of PCP-induced working memory deficit in retention phase of NOR task, statistical significance” value in data set [1] (Isomer A 30 mg/kg p.o. (highest dose), FIG. 2) was “significant at the highest dose”. Besides, the “locomotor activity in the test arena (number of lines crossed, T1 and T2)” value in data set [1] (Isomer A 30 mg/kg p.o., compared with vehicle control group, FIG. 4) is “significant effect to reduce locomotor activity”. In data set [1] (Isomer A 30 mg/kg p.o., did not reach statistical significance, FIG. 3), the “discrimination index (DI) in sub-chronic PCP treated rats” value is “improved”. In addition, in data set [1] (Isomer A 3.0-30 mg/kg p.o., FIG. 1), the “exploration of two identical objects in the acquisition phase (T1)” value is “no effect”. Besides, the “attenuation of sub-chronic PCP-induced deficit in retention trial (exploration time of familiar vs novel object)” value in data set [1] (acute Isomer A 3-30 mg/kg p.o., 30 min before testing, sub-chronic PCP 2 mg/kg i.p. twice daily for 7 days then 7 days washout, FIG. 2) was “has efficacy to attenuate the sub-chronic PCP-induced deficit; also recorded: selective for the retention phase of the NOR task; also recorded: counteracted the effects of sub-chronic administration of phencyclidine hydrochloride (PCP)”.

As to `c1ccc(C2(N3CCCCC3)CCCCC2)cc1` [PCP, Phencyclidine hydrochloride], the “discrimination index (DI) after sub-chronic PCP treatment” value in data set [1] (PCP 2 mg/kg i.p. twice daily for seven days, did not reach statistical significance, FIG. 3) is listed as “induced a reduction in the discrimination index”. Moreover, the “cognitive deficit in the retention phase of the NOR task” value in data set [2] (acute PCP 0.5-2.0 mg/kg ip) and in data set [2] (sub-chronic PCP 2 mg/kg i.p. twice daily for 7 days followed by 7 days drug-free period) was “produce a selective cognitive deficit” each time.

Regarding `O=C(CCCN1CCC(O)(c2ccc(Cl)cc2)CC1)c1ccc(F)cc1` [haloperidol], the “improvement of deficit induced by sub-chronic PCP in NOR paradigm” value in data set [2] (haloperidol 0.05-0.075 mg/kg) is on record as “not”.

As to `Cc1nc2n(c(=O)c1CCN1CCC(c3noc4cc(F)ccc34)CC1)CCCC2` [risperidone, reference compound], the “attenuation of sub-chronic PCP-induced deficit in retention trial” value in data set [1] (risperidone 0.2 mg/kg i.p., 30 min before testing, FIG. 2) is “attenuate the sub-chronic PCP-induced deficit”. The “discrimination index (DI) in sub-chronic PCP treated rats” value in data set [1] (risperidone 0.2 mg/kg i.p., did not reach statistical significance, FIG. 3) was “improved”.
